Data set [1] deals with transformed human keratinocyte cell line (FEP 1811). Briefly: Clonogenic survival cell culture assay for cytotoxicity. The format is cell-based. Particulars: Homo sapiens, Keratinocyte, light or radiation study; un-irradiated keratinocytes, one hour drug exposure, colonies counted after eight days; read-out: C50 (concentration of radioprotector that results in 50% clonogenic survival). Here is the method:
• i. […] In appropriate cases, tautomers are drawn to illustrate potential hydrogen-bond donating configurations into the minor groove of DNA. • ii. 2-Amino-4-(5′-(4″-methylpiperazin-1″-yl)benzimidazol-2′-yl)aniline was prepared by hydrogenation of 4-(5′-(4″-methylpiperazin-1″-yl)benzimidazol-2′-yl)-2-nitroaniline, using a modification of the method of Kelly et al, Aust. […] 2-Amino-4-(5′-(piperidin-1″-yl)benzimidazol-2′-yl)aniline was prepared by hydrogenation of 2-nitro-4-(5′-(piperidin-1″-yl)benzimidazol-2′-yl)aniline, using a modification of the method of Kelly et al, Aust. […] Ethyl 4-amino-3-nitrobenzenecarboximidate hydrochloride was prepared by reaction of 4-amino-3-nitrobenzonitrile with dry HCl gas in ethanol, using the method of Kelly et al, Aust. […] 5-(4′-Methylpiperazin-1′-yl)-2-nitroaniline was prepared using a modification of the method of Kelly et al, Aust. […] The following chemicals were obtained from the chemical suppliers indicated: 2-furaldehyde (Aldrich), 2-pyridinecarboxaldehyde (Aldrich), 3-fluoropyridine-2-carbaldehyde (Maybridge), 3-trifluoromethylpyridine-2-carboxaldehyde (Apollo Scientific), 6-methyl-2-pyridinecarboxaldehyde (Matrix Scientific), 5-methylpyridine-2-carbonitrile (Apollo Scientific), 4-methyl-2-pyridinecarbonitrile (Aldrich), 4-chloro-2-pyridinecarbonitrile (Aldrich), 4-methoxypicolinonitrile (Combi-Blocks), pyrazinecarbonitrile (Aldrich), 2-quinolinecarbonitrile (Aldrich), 3-isoquinolinecarbonitrile (Aldrich), 1-isoquinolinecarboxylic acid (Aldrich), indazole-3-carboxylic acid (Aldrich), 2-hydroxynicotinic acid (Aldrich), 4-hydroxypiperidine (Aldrich), 1-methylhomopiperazine (Aldrich), 3-hydroxypiperidine (Aldrich), 4-(N-BOC-amino)piperidine (Aldrich), 4-methoxypiperidine (Acros), 4-methyl-3-nitrobenzonitrile (Aldrich), 5-chloro-2-nitroaniline (Aldrich), 2-cyanopyridine (Aldrich), methyl 4-amino-2-methoxybenzoic acid (Aldrich), 4-(trifluoromethyl)-2-pyridinecarbonitrile (Matrix Scientific), cis-2,6-dimethylmorphoiline (Acros), 5-(trifluoromethyl)-2-pyridinecarbonitrile (Advanced Chemical Intermediates) and 5-fluoro-2-pyridinecarbonitrile (Advanced Chemical Intermediates). • ix. […] Melting points were determined using an Electrothermal melting point apparatus, and are uncorrected. […] The abbreviations s for singlet, d for doublet, t for triplet, q for quartet, br for broad and m for muitiplet were used in the assignments of multiplicity. A value approximating the centre of a multiplet is quoted. […] The addition of a few drops of acetic acid to methanol-d4 solutions was used to enhance solubility for the acquisition of ^13C nmr spectra. Mass spectra were recorded on a Micromass Quattro II mass spectrometer and accurate mass analyses were carried out by the School of Chemistry at the University of Melbourne on a Finnigan LTQ-FT model high resolution mass spectrometer. Thin layer chromatography (TLC) was carried out using Merck silica gel 60 F254 aluminium sheets or Merck neutral aluminium oxide 150 F254 sheets. Flash column chromatography was carried out using Ajax silica gel 230-400 mesh. • xi. […] The details are described in detail in Martin et al (4) (the disclosure of which is included herein in its entirety by way of reference), but briefly, mid-log phase monolayer cultures are incubated with various concentrations of the test drugs for one hour, after which the monolayers are washed and dispersed into single cell suspensions using pronase, and finally appropriate numbers of cells are dispensed into Petri dishes. Colonies are counted after eight days incubation. […] The irradiation (with a dose rate of 0.6 Gy per minute) is started 30 minutes after addition of the test drug. After completion of irradiation, incubation of cultures is continued until the total time of exposure to the drug reaches 60 minutes. Cultures are then washed and plated for clonogenic survival as described for the cytotoxicity experiments.

The test system is the same in data set [2]. Briefly: Clonogenic survival cell culture assay for radioprotective activity (12 Gy 137Cs gamma irradiation). Format: cell-based. Particulars: 12 Gy; for DMF10 (dose modification factor at a concentration of 10 microM of radioprotector): 10 microM radioprotector; for DMFm (dose modification factor at maximum protection): DMF=Dp/Dc at survival level Sm; for PF (protection factor = Sm/So): survival at maximum protection vs irradiation only. The text has this: PF is defined as a ratio of survival at maximum protection Sm and survival after irradiation only So: PF=Sm/So. DMF is defined as a ratio of doses that result in survival level of Sm in the presence Dp and the absence Dc of radioprotector: DMF=Dp/Dc. DMF10 is define in a similar way except that instead of Sm a survival at 10 microM of radioprotector is used.
PF (Protection Factor) is defined as a ratio of survival at maximum protection Sm and survival after irradiation only So:PF=Sm/So. DMF (Dose Modification Factor) is defined as a ratio of doses that result in survival level of Sm in the presence (Dp) and the absence (Dc) of radioprotector: DMF=Dp/Dc. DMF10 is defined in a similar way except that instead of Sm a survival at 10 microM of radioprotector is used.
• i. […] In appropriate cases, tautomers are drawn to illustrate potential hydrogen-bond donating configurations into the minor groove of DNA. • ii. 2-Amino-4-(5′-(4″-methylpiperazin-1″-yl)benzimidazol-2′-yl)aniline was prepared by hydrogenation of 4-(5′-(4″-methylpiperazin-1″-yl)benzimidazol-2′-yl)-2-nitroaniline, using a modification of the method of Kelly et al, Aust. […] 2-Amino-4-(5′-(piperidin-1″-yl)benzimidazol-2′-yl)aniline was prepared by hydrogenation of 2-nitro-4-(5′-(piperidin-1″-yl)benzimidazol-2′-yl)aniline, using a modification of the method of Kelly et al, Aust. […] Ethyl 4-amino-3-nitrobenzenecarboximidate hydrochloride was prepared by reaction of 4-amino-3-nitrobenzonitrile with dry HCl gas in ethanol, using the method of Kelly et al, Aust. […] 5-(4′-Methylpiperazin-1′-yl)-2-nitroaniline was prepared using a modification of the method of Kelly et al, Aust. […] The following chemicals were obtained from the chemical suppliers indicated: 2-furaldehyde (Aldrich), 2-pyridinecarboxaldehyde (Aldrich), 3-fluoropyridine-2-carbaldehyde (Maybridge), 3-trifluoromethylpyridine-2-carboxaldehyde (Apollo Scientific), 6-methyl-2-pyridinecarboxaldehyde (Matrix Scientific), 5-methylpyridine-2-carbonitrile (Apollo Scientific), 4-methyl-2-pyridinecarbonitrile (Aldrich), 4-chloro-2-pyridinecarbonitrile (Aldrich), 4-methoxypicolinonitrile (Combi-Blocks), pyrazinecarbonitrile (Aldrich), 2-quinolinecarbonitrile (Aldrich), 3-isoquinolinecarbonitrile (Aldrich), 1-isoquinolinecarboxylic acid (Aldrich), indazole-3-carboxylic acid (Aldrich), 2-hydroxynicotinic acid (Aldrich), 4-hydroxypiperidine (Aldrich), 1-methylhomopiperazine (Aldrich), 3-hydroxypiperidine (Aldrich), 4-(N-BOC-amino)piperidine (Aldrich), 4-methoxypiperidine (Acros), 4-methyl-3-nitrobenzonitrile (Aldrich), 5-chloro-2-nitroaniline (Aldrich), 2-cyanopyridine (Aldrich), methyl 4-amino-2-methoxybenzoic acid (Aldrich), 4-(trifluoromethyl)-2-pyridinecarbonitrile (Matrix Scientific), cis-2,6-dimethylmorphoiline (Acros), 5-(trifluoromethyl)-2-pyridinecarbonitrile (Advanced Chemical Intermediates) and 5-fluoro-2-pyridinecarbonitrile (Advanced Chemical Intermediates). • ix. […] Melting points were determined using an Electrothermal melting point apparatus, and are uncorrected. […] The abbreviations s for singlet, d for doublet, t for triplet, q for quartet, br for broad and m for muitiplet were used in the assignments of multiplicity. A value approximating the centre of a multiplet is quoted. […] The addition of a few drops of acetic acid to methanol-d4 solutions was used to enhance solubility for the acquisition of ^13C nmr spectra. Mass spectra were recorded on a Micromass Quattro II mass spectrometer and accurate mass analyses were carried out by the School of Chemistry at the University of Melbourne on a Finnigan LTQ-FT model high resolution mass spectrometer. Thin layer chromatography (TLC) was carried out using Merck silica gel 60 F254 aluminium sheets or Merck neutral aluminium oxide 150 F254 sheets. Flash column chromatography was carried out using Ajax silica gel 230-400 mesh. • xi.

Turning to `CN1CCN(c2ccc3nc(-c4ccc5nc(-c6ccco6)[nH]c5c4)[nH]c3c2)CC1` [Example 1, 2-(5′-(5″-(4′″-Methylpiperazin-1′″-yl)benzimidazol-2″-yl)benzimidazol-2′-yl)furan], the melting point was 202 to 224 °C (dec.). For the same compound, the IC50 in data set [1] amounted to 57.3 µM. Besides, in data set [2], the “DMF10 (dose modification factor at a concentration of 10 microM of radioprotector)” value (shortened to “DMF10”) came to 1.14, the “DMFm (dose modification factor at maximum protection)” value (“DMFm” for short) turned out to be 1.37 and the “PF (protection factor = Sm/So)” value stood at 7.7.
The corresponding values for `CN1CCN(c2ccc3nc(-c4ccc5nc(-c6ncccc6F)[nH]c5c4)[nH]c3c2)CC1` [Example 3, 3-Fluoro-2-(5′-(5″-(4′″-methylpiperazin-1′″-yl)benzimidazol-2″-yl)benzimidazol-2′-yl)pyridine] are 201 to 214 °C, 93.1 µM, 1.40, 1.80 and 15.3.
`CN1CCN(c2ccc3nc(-c4ccc5nc(-c6ncccc6C(F)(F)F)[nH]c5c4)[nH]c3c2)CC1` [Example 4, 2-(5′-(5″-(4′″-Methylpiperazin-1′″-yl)benzimidazol-2″-yl)benzimidazol-2′-yl)-3-trifluoromethylpyridine] gave a melting point of 189 to 191 °C. Besides, the IC50 in data set [1] was determined as 190 µM. Moreover, in data set [2], the “DMF10” value came out at 1.41, the “DMFm” value was 1.99 and the “PF (protection factor = Sm/So)” value is 30.5.
Regarding `Cc1ccnc(-c2nc3ccc(-c4nc5ccc(N6CCN(C)CC6)cc5[nH]4)cc3[nH]2)c1` [Example 7, 4-Methyl-2-(5′-(5″-(4′″-methylpiperazin-1′″-yl)benzimidazol-2″-yl)benzimidazol-2′-yl)pyridine], the melting point is 200 °C (dec.). Further, in data set [1], the IC50 was 130 µM. For the same compound, in data set [2], the “DMF10” value amounted to 2.36, the “DMFm” value was 2.55 and the “PF (protection factor = Sm/So)” value came to 183.8.
The corresponding values for `CN1CCN(c2ccc3nc(-c4ccc5nc(-c6cc(Cl)ccn6)[nH]c5c4)[nH]c3c2)CC1` [Example 8, 4-Chloro-2-(5′-(5″-(4′″-methylpiperazin-1′″-yl)benzimidazol-2″-yl)benzimidazol-2′-yl)pyridine] are 195 °C (dec.), 80 µM, 2.12, 2.20 and 39.6.
The corresponding values for `CNc1ccnc(-c2nc3ccc(-c4nc5ccc(N6CCN(C)CC6)cc5[nH]4)cc3[nH]2)c1` [Example 9, 4-Methylamino-2-(5′-(5″-(4′″-methylpiperazin-1′″-yl)benzimidazol-2″-yl)benzimidazol-2′-yl)pyridine] are 220 °C (dec.), 59.9 µM, 1.14, 1.55 and 7.1.
Take `CN(C)Nc1ccc2[nH]c(-c3ccc4[nH]c(-c5ccccn5)nc4c3)nc2c1` [Example 46, 2-(5′-(5″-(2′″,2′″-dimethylhydrazinyl)benzimidazol-2″-yl)benzimidazol-2′-yl)pyridine]: the IC50 in data set [1] came to 74.6 µM. For the same compound, in data set [2], the “DMF10” value was 1.29, the “DMFm” value is listed as 1.71 and the “PF (protection factor = Sm/So)” value is on record as 27.9.
The corresponding values for `CN1CCN(c2ccc3nc(-c4ccc5nc(-c6ccc(F)cn6)[nH]c5c4)[nH]c3c2)CC1` [Example 47, 5-fluoro-2-(5′-(5″-(4′″-methylpiperazin-1″-yl)benzimidazol-2″-yl)benzimidazol-2′-yl)pyridine] are 538 µM, 2.20, 2.46 and 40.0.
On to `C[C@@H]1CN(c2ccc3nc(-c4ccc5nc(-c6ccccn6)[nH]c5c4)[nH]c3c2)C[C@H](C)O1` [Example 52, 2-(5′-(5″-(cis-2′″,6′″-dimethylmorpholino)benzimidazol-2″-yl)benzimidazol-2′-yl)pyridine], for which the IC50 in data set [1] amounted to 134 µM. In data set [2], the “DMF10” value is reported as 1.40, the “DMFm” value amounted to 1.75 and the “PF (protection factor = Sm/So)” value is on record as 55.9.
The corresponding values for `CN(CCO)c1ccc2[nH]c(-c3ccc4[nH]c(-c5ccccn5)nc4c3)nc2c1` [Example 54, 2-(5′-(5″-(3′″-hydroxyethyl-1′″-methylamino)benzimidazol-2″-yl)benzimidazol-2′-yl)pyridine] are 94.3 µM, 1.15, 1.87 and 20.2.

A word on the melting point: it is the temperature of the solid-liquid transition.

The values above are taken from patent publication USRE46943E1, “Radioprotector compounds and methods” (PETER MACCALLUM CANCER INSTITUTE, priority 2010, dated 2018).
